In PMC5987196 (ACS infectious diseases, 2017):
Like-named read-outs stand apart in the source and are kept apart here.

Experiments:
[1] = test system: E. coli carrying blaADC37 encoded in pBC SK (−); experiment: MIC broth microdilution with ceftazidime plus BATSI; format: cell-based, Escherichia coli DH10B; details: for MIC broth dilution: CAZ MIC with 10 μg/mL compound, CAZ varied from 0 to 128 μg/mL
[2] = test system: E. coli carrying blaADC37 encoded in pBC SK (−); experiment: Disk susceptibility assay; format: cell-based, Escherichia coli DH10B; details: 10 μg of BAI and 10 μg of ceftazidime per disk, zone size
[3] = test system: AB0057 A. baumannii spp. clinical strain; experiment: Disk susceptibility assay; format: cell-based; details: zone size
ADC-7 [4] = target: T1, ADC-7 (Acinetobacter baumannii, UniProt Q6DRA1); details: previously reported value for the lead compound; cited from earlier work
ADC-7 [5] = target: T1, ADC-7; experiment: Competition kinetics with nitrocefin against ADC-7 β-lactamase; format: biochemical
E. coli AmpC = details: class C enzyme lacking Arg340; cited from earlier work
Pseudomonas PDC-3 = details: class C enzyme lacking Arg340; cited from earlier work
[6] = 10 μg of BAI and 10 μg of sulbactam per disk

| Molecule | MIC broth dilution [1] [mg/L] | disk assay [2] [mm] | disk assay [3, 6] [mm] | other results |
| --- | --- | --- | --- | --- |
| O=C(Cc1cccs1)N[C@@H](Cn1cc(C(=O)O)nn1)B(O)O [3a, (1R)-2-[4-carboxy-[1,2,3]triazol-1-yl]-1-(2-thienylace-tylamino)ethaneboronic acid] | 1 | 26 | 16 | Ki (ADC-7 [4]): 0.044 µM |
| O=C(O)Cc1cn(C[C@H](NC(=O)Cc2cccs2)B(O)O)nn1 [3b, (1R)-2-(4-carboxymethyl-[1,2,3]triazol-1-yl)-(2-thienylace-tylamino)ethaneboronic acid] | 2 | 18 | 10 | less activity relative to 3a (ADC-7 [5]; Ki compared with 3a): 3 fold |
| O=C(Cc1cccs1)N[C@@H](Cn1cc(-c2cccc(C(=O)O)c2)nn1)B(O)O [3c, (1R)-2-[4-(3-carboxyphenyl)-[1,2,3]triazol-1-yl]-1-(2-thienylacetylamino)ethaneboronic acid] |  | 24 | 15 | Ki (ADC-7 [5]): 0.046 ± 0.003 µM |
| O=C(Cc1cccs1)N[C@@H](Cn1cc(-c2nn[nH]n2)nn1)B(O)O [3h, (1R)-2-[4-(2H-tetrazol-5-yl)-[1,2,3]triazol-1-yl]-1-(2-thienylacetylamino)ethaneboronic acid] |  | 23 | 10 |  |
| O=C(Cc1cccs1)N[C@@H](Cn1cc(-c2cccc(-c3nn[nH]n3)c2)nn1)B(O)O [3j, (1R)-2-[4-(3-(2H-tetrazol-5-yl)phenyl)-[1,2,3]triazol-1-yl]-1-(2-thienylacetylamino)ethaneboronate] | 8 | 15 | 6 |  |
| CC(C)(O/N=C(\C(=O)N[C@@H]1C(=O)N2C(C(=O)[O-])=C(C[n+]3ccccc3)CS[C@H]12)c1csc(N)n1)C(=O)O [CAZ, ceftazidime, reference compound] |  |  |  | MIC ([1]; Escherichia coli, read-out: MIC broth dilution): 32 mg/L |
| O=C(Cc1cccs1)N[C@@H](Cc1cccc(C(=O)O)c1)B(O)O [EC04, reference compound] | 2 | 21 | 11 | Ki (E. coli AmpC): 0.001 µM; Ki (Pseudomonas PDC-3): 0.22 µM |
| O=C(Cc1cccs1)N[C@H](B(O)O)c1cccc(C(=O)O)c1 [SM23, reference compound] | 1 | 25 | 12 | Ki (E. coli AmpC): 0.001 µM; Ki (Pseudomonas PDC-3): 0.004 µM |
| CC1(C)[C@H](C(=O)O)N2C(=O)C[C@H]2S1(=O)=O [SUL, sulbactam, reference compound] |  |  |  | disk assay ([3]; SUL alone, 10 μg): SUL 6 mm; disk assay ([3]; SUL alone, 10 μg, listed as sulbactam): 6 mm |
| (1R)-2-(4-carboxamido-[1,2,3]triazol-1-yl)-1-(2-thienylacetylamino)ethaneboronate [3d] | 4 | 18 | 10 |  |
| (1R)-2-(4-idroxycarbamoyl-[1,2,3]triazol-1-yl)-1-(2-thienylacetylamino)ethaneboronic acid [3e] | 2 | 16 | 8 |  |
